How the values were obtained:
[1] = tested on: Thompson seedless table grape vines; conditions: applied about three weeks before bloom; cited from earlier work
[2] = tested on: Vitis vinifera L. cv. Malbec; experiment: Field trial 2014-2015: GA5, GA4, GA4/7 bunch dip or spray on cv. Malbec grapevines (Example 3); format: in vivo
Description: (§1) A third trial was done in the same vineyard used for the trials outlined in Examples 1 and 2. Grapevines were selected from a clone of Vitis vinifera L. cv. Malbec, planted in 1997 on their own roots in a commercial vineyard located in Gualtallary, Mendoza, Argentina (1450 m above sea level, 69°15′37″ W and 33°23′51″ S). The vines were trained on a vertical trellis system arranged in north-south oriented rows spaced 2 m apart, with 1.20 m between plants within the row. The grapevines were maintained with no soil water restriction during the whole experiment by the use of a drip irrigation system (4 liters per plant per night), and the fruiting vines were protected with anti-hail nets (black polyethylene).
The effects of two concentrations (i.e., 10 mg/L and 50 mg/L) of three different gibberellin compositions (GA5, GA4, and a mixture of GA4 and GA7 referred to as “GA4/7”) on berry and bunch development and quality in treated cv. […] All of the treatment solutions, including the water controls, contained 0.1% v/v of the surfactant TRITON®-X and a minimal amount of 96% EtOH to dissolve the various GA5, GA4, and GA4/7 powders (the control treatments also included a minimal amount of 96% EtOH).
The effects of GA applications were assessed at two stages of berry development. The first group of test plants was treated at 60 DBV (i.e. 31 DAF) while a second group of test plants was treated at 30 DBV (i.e. 61 DAF). At each application stage, the groups of test plants receiving selected treatments were each divided into two subsets. The developing berry bunches on the first subset of plants for a selected treatment were treated by submerging into a 750-mL volume of the test solution for a period of 15 sec during late afternoon. The second subset of plants was treated with a spray application of 150 mL of test solution per each test plant. The spray applications were made in late afternoon.
For each of the two application stages, a randomized complete block design with 14 treatments and 5 blocks was used for a […]. The experimental unit consisted of one plant selected as being “typical” among 6 consecutive plants in a selected row. Each row was a replicate, i.e., a “block”. There were thus 40 experimental units (plants) utilized for each growth regulator. All the grapevines in the 5 replicate rows were pruned to 8 “fruiting” shoots and the crop load on each shoot was thinned to two bunches per shoot at the beginning of the experiment (31 DAF or 60 DBV). One shoot per experimental unit was selected, marked and used for the non-destructive measurements (shoot length, number of leaves and leaf area), while the rest of the shoots were used for berry sampling.
(§2) At harvest, the two selected and marked bunches from one fruiting shoot per experimental unit, i.e. not used for berry sampling, were collected in nylon bags and weighed. Then the number of berries per bunch was counted.
Samples of 25 berries per experimental unit were randomly collected in nylon bags (5 berries from each bunch; two top berries, two middle berries, one bottom berry; for each test vine, berries were collected from 5 bunches exposed to the west). These berry samples were taken at 132 DAF (132 DAF being the time of ripe berry harvest). The berries were kept on dry ice to prevent enzyme activity and dehydration and were taken quickly to the laboratory where berry fresh weights (FW) were determined before the berries were stored at −20° C. Then, 15 berries per experimental unit were defrosted at ambient room temperature after which, the skins were separated from fruit pulp and seeds by hand. The fruit pulp was collected in nylon bags, crushed by hand pressing and the relative concentration of sugars (°Brix) was measured in the pulp juice with a PAL-1 digital hand-held refractometer (Atago Co., Ltd., Tokyo, Japan). The °Brix was multiplied by the berries' FW to calculate sugar on a per berry basis (absolute amounts). […]

[3] = tested on: Vitis vinifera L. cv. Malbec; experiment: Field trial 2010-2011: GA5 bunch dip on cv. Malbec grapevines (Example 1); format: in vivo
Description: as §1, with “Grapevines” for “A third trial was done in the same vineyard used for the trials outlined in Examples 1 and 2. Grapevines”
The treatments were applied by submerging all of the fruit bunches on each vine in a treatment group in the selected aqueous solution (fruit bunches from control vines were submerged in water). All of the treatment solutions, including the water controls, contained 0.1% v/v of the surfactant TRITON®-X (TRITON is a registered trademark of the Dow Chemical Co., Indianapolis, Ind., USA) and a minimal amount of 95% EtOH to dissolve the GA5 powders (the control treatments also included a minimal amount of 95% EtOH). The treatments were applied three times; 56 days after flowering (DAF; i.e., 35 days before veraison—“DBV”), 70 DAF (i.e., 21 DBV), and 91 DAF (i.e., 0 DBV). The 91 DAF treatment time corresponded to veraison. Each berry bunch on a test vine was submerged in 750 mL of the selected treatment solution for 15 sec during a late afternoon time period.
A randomized complete block design with 4 treatments and 5 blocks was used during the 2010-2011 production season. The experimental unit consisted of one plant selected as being “typical” among 6 consecutive plants in a selected row. Each row was a replicate, i.e., a “block”. There were thus 5 experimental units (plants) utilized for each treatment, one for each row (block). All the grapevines in the 5 replicate rows were pruned to 8 “fruiting” shoots and the crop load on each shoot was thinned to two bunches per shoot at 40 days after flowering (DAF). One shoot per experimental unit was selected, marked and used for the non-destructive measurements (shoot length, number of leaves and leaf area), while the rest of the shoots were used for berry sampling.
(§3) Shoot length, number of leaves and midrib (main vein) length of all leaves were measured at: (i) 56 DAF/35 DBV just before application of the first set of treatments, and (ii) 132 DAF (harvest date). At the 132 DAF, all of the leaves from 10 randomly selected shoots were collected in nylon bags, kept on ice to prevent dehydration, and were taken to the laboratory where the length of the leaf midribs, weights of separated leaves, and the weights of 1-cm^2 leaf discs were determined. Then, the leaf areas (LA) were calculated and, based on the weights, a linear regression model between the LA and the midrib length was generated. The correlation coefficient (r^2) was 0.91 and thus the model was used to transform the non-destructive measurements of midrib length into LA values.
At 132 DAF, the two selected and marked bunches from one fruiting shoot per experimental unit, i.e. not used for berry sampling, were collected in nylon bags and weighed. Then the number of berries per bunch was counted.
Finally, in the next year's flowering and fruiting season (early 2012) the number of fruit clusters bunches per shoot were counted in order to assess GA5 treatment effects on return bloom.

[4] = tested on: Vitis vinifera L. cv. Malbec; experiment: Field trial 2012-2013: GA5 bunch dip once at 30 DBV on cv. Malbec grapevines (Example 2); format: in vivo
Description: as §1, with “second” for “third”, “trial” for “trials”, “Example 1.” for “Examples 1 and 2.”
The treatments were applied by submerging all of the fruit bunches on each vine in a treatment group in the selected aqueous solution (fruit bunches from control vines were submerged in water). All of the treatment solutions, including the water controls, contained 0.1% v/v of the surfactant TRITON®-X and a minimal amount of 95% EtOH to dissolve the GA5 powders (the control treatments also included a minimal amount of 95% EtOH). All treatments were applied once at 30 DBV (i.e. 61 DAF). Each berry bunch on a test vine was submerged in 750 mL of the selected treatment solution for 15 sec during a late afternoon time period.
A randomized complete block design with 5 treatments and 5 blocks was used during the 2012-2013 production season. The experimental unit consisted of one plant selected as being “typical” among 6 consecutive plants in a selected row. Each row was a replicate, i.e., a “block”. There were thus 5 experimental units (plants) utilized for each treatment, one for each row (block). All the grapevines in the 5 replicate rows were pruned to 8 “fruiting” shoots and the crop load on each shoot was thinned to two bunches per shoot at 40 days after flowering (DAF). One shoot per experimental unit was selected, marked and used for the non-destructive measurements (shoot length, number of leaves and leaf area), while the rest of the shoots were used for berry sampling.
as §3, with “30” for “56 DAF/35”, “at harvest.” for “132 DAF (harvest date).”, “harvest,” for “the 132 DAF,”
as §2

[5] = 10 and 50 mg/L, submersion and spraying, 60 DBV and 30 DBV, vs controls

SMILES: C=C1C[C@]23C[C@@]1(O)CC[C@H]2[C@@]12C=C[C@H](O)[C@@](C)(C(=O)O1)[C@H]2[C@@H]3C(=O)O [GA3, gibberellic acid]
- Berry cluster compactness [1]: reduce berry cluster compactness
- Fruit set [1]: reduce fruit set

SMILES: C=C1C[C@]23C[C@H]1CCC2[C@@]12CC[C@H](O)C(C)(C(=O)O1)C2[C@@H]3C(=O)O (stereo partly drawn) [GA4, gibberellin A4]
- Harvest yield (average per bunch fresh weight), significance vs controls ([2]; 8 rate/method/stage combinations, FIG. 8A): significantly different from the controls in 5 out of 8 rates
- Anthocyanin content per berry skin [2, 5]: appreciable increases
- Average per bunch fresh weight [2, 5]: increased
- Dry weight per individual berry [2, 5]: tended to be generally increased
- Number of berries per bunch [2, 5]: increased
- Sugar content per berry [2, 5]: tended to result in increased
- Total polyphenol index (TPI) per berry skin [2, 5]: appreciable increases

SMILES: C=C1C[C@]23C[C@@]1(O)CC[C@H]2[C@@]12CC=C[C@@](C)(C(=O)O1)[C@H]2[C@@H]3C(=O)O [GA5, gibberellin A5]
- Vegetative growth of shoots (shoot length, number of leaves) ([3]; 5, 50, 250 mg/L, bunch dip at 35, 21 and 0 DBV, post-56 DAF to harvest, vs controls, FIGS. 1A-1C): not significantly affected
- Return bloom: number of fruit clusters (bunches) per shoot in the following season ([3]; assessed early 2012, FIG. 2C): no significant effects
- Per bunch fresh weight of grape berry bunches ([3]; lower GA5 application rates, dip at 56, 70 and 91 DAF, harvested at 132 DAF, FIG. 2A): significant increases
- Number of berries per bunch ([3]; lower GA5 application rates, dip at 56, 70 and 91 DAF, harvested at 132 DAF, FIG. 2B): significant increases
- Leaf surface area per shoot ([3]; lower concentrations 5 mg/L, 50 mg/L, bunch dip at 35, 21 and 0 DBV, FIG. 1C): tended to reduce
- Shoot length, significance vs Control ([4]; 5 mg/L, dip once at 30 DBV, FIG. 3A): statistically significantly different from the Control
- Per bunch fresh weight ([4]; 20 mg/L, dip once at 30 DBV, FIG. 4A): significantly increased
- Number of berries per bunch ([4]; 20 mg/L, dip once at 30 DBV, FIG. 4B): significantly increased
- Grape yield per plant and per hectare ([4]; 20 mg/L, inferred from bunch weight): appreciably increased
- Shoot length ([4]; all four treatments 5, 20, 50, 250 mg/L, dip once at 30 DBV, at harvest, FIG. 3A): decreased
- Leaf surface area per shoot ([4]; all four treatments 5, 20, 50, 250 mg/L, dip once at 30 DBV, at harvest, FIG. 3B): decreased
- Anthocyanin content per berry skin [2, 5]: tended to be generally increased
- Average per bunch fresh weight [2, 5]: increased
- Dry weight per individual berry [2, 5]: generally increased
- Fresh weight per individual berry [2, 5]: generally increased
- Number of berries per bunch [2, 5]: increased
- Sugar content per berry [2, 5]: (non-significant) increased
- Total polyphenol index (TPI) per berry skin [2, 5]: tended to be generally increased

Source: patent US20190021323A1, “Use of Gibberellin A5 to Increase the Yield and Quality of Wine Grapes” (UTI Limited Partnership, priority 2016, published 2019)
